This note sets out measurements from ChEMBL document CHEMBL1201862, “PubChem BioAssay data set” (2004).

The source made the active and inactive calls.

Assay [1] in a line: Luminescence Cell-Based Dose Response HTS to Identify Activators of Luciferase Translation or Activity in H4 […] Cells. [Related pubchem assays: 1829 (Project Summary), 1814 (Primary HTS)]. Type of assay: functional.
Assay [2] has as its system H4. The assay is described as follows: Luminescence Cell-Based Dose Response HTS to Identify Activators of 5'UTR Stem-Loop Driven Prion Protein mRNA Translation in H4 Neuroglioblastoma Cells. [Related pubchem assays: 1829 (Project Summary), 1814 (Primary HTS)]. The format is functional. The conditions noted are these: Homo sapiens.
The subject of assay [3] is H9c2. The assay is described as follows: cells. Type of assay: functional, cell-based. As to conditions: Rattus norvegicus, H9c2, Myocardium.
Assay [4] is described as follows: Luminescence Cell-Based Dose Confirmation HTS to Identify Activators of 5'UTR Stem-Loop Driven Alpha-Synuclein mRNA Translation in H4 Neuroglioblastoma Cells. [Related pubchem assays: 1829 (Project Summary), 1814 (Primary HTS)]. Type of assay: functional.
Assay [5] has as its target T1, Fatty acid synthase (Homo sapiens, UniProt P49327). Put plainly: FAS thioesterase domain inhibitors, dose response, biochemical, endpoint fluorescence intensity, uHTS hits (AID 624327).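 Note: fluorescence from hydrolysis of an O-methyl fluorescein acyl ester substrate by the enzyme.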 The format is functional.
For assay [6], the system named is Streptococcus. The assay is described as follows: Group A Streptococcus viability loss, dose response, counter-screen for streptokinase expression inhibitor project, luminescence, BacTiterGlo (AID 1915).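 Note: potency for reduction of bacterial viability or growth.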 Type of assay: functional, organism-based.
For assay [7], the target named is T2, Streptokinase A (Streptococcus pyogenes serotype M1, UniProt P10520).
T2 sequence (P10520 whole entry): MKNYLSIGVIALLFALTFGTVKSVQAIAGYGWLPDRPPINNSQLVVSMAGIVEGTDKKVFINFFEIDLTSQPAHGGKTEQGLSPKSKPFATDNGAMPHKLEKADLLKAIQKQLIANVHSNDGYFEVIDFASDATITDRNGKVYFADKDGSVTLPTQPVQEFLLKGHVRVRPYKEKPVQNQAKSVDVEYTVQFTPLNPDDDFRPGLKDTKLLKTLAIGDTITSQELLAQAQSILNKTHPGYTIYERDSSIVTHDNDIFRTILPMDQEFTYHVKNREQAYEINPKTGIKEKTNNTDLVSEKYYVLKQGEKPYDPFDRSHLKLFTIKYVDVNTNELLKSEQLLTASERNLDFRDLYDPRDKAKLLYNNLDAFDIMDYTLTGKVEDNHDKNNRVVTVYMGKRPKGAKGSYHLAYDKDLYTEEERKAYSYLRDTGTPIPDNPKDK
Put plainly: S. pyogenes streptokinase expression inhibitors, potency, dose response, plasminogen activation absorbance, OD405 (AID 1914).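 Note: secreted streptokinase activity via plasminogen activation per viability signal from cell pellet.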 Type of assay: functional, Streptococcus pyogenes M1 GAS.

For assay [8], the system named is Streptococcus sp. 'group A'. The assay is described as follows: growth inhibition of control SK(-) GAS strain, dose response, counter-screen for streptokinase expression inhibitor project, luminescence, kanamycin, BacTiterGlo, confirmation (AID 1900). The format is functional, organism-based. In general terms: A counterscreen serves to expose hits that act by an unwanted route or on another target.

Assay [9] addresses T1, Fatty acid synthase. The assay is described as follows: FAS thioesterase domain inhibitors, dose response, biochemical, kinetic fluorescence intensity (AID 624326).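 Note: rate of fluorescence rise from hydrolysis of a fluorogenic O-methyl fluorescein ester substrate.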 Type of assay: functional.
In assay [10] the target is T3, Polyadenylate-binding protein 1 (Homo sapiens, UniProt P11940). Put plainly: PABP1 MLLE–PAM2 interaction inhibitors, dose response, miRNA deadenylation inhibitor project, biochemical, fluorescence polarization, Cy5-PAM2 peptide, secondary (AID 602260). As to conditions: read-out: IC50_Mean. Type of assay: functional. Background: In fluorescence polarisation assays a small probe gives low polarisation when free and higher when bound to something large.
T3 sequence (P11940 whole entry): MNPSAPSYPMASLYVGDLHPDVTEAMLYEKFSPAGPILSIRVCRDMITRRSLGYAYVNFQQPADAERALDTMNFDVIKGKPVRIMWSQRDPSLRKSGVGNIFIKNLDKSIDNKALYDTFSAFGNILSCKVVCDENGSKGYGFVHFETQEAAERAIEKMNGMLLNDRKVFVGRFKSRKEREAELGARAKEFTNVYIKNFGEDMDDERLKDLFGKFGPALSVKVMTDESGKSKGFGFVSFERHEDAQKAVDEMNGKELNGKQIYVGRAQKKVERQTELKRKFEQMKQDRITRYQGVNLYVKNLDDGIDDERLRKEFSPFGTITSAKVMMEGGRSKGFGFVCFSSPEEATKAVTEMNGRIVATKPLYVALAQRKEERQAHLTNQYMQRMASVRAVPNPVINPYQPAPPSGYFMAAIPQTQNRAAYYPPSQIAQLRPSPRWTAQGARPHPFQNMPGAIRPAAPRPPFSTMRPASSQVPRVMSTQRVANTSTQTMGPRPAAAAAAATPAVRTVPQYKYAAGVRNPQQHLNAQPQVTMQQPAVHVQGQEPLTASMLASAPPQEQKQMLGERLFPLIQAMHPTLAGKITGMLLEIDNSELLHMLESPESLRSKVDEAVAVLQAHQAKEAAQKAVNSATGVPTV

Assay [11] concerns the target T3, Polyadenylate-binding protein 1. The assay is described as follows: PABP1 MLLE–PAM2 binding inhibitor potency, dose response, biochemical, fluorescence polarization, FITC-PAM2 peptide (AID 602259). The format is functional. As to conditions: read-out: IC50_Mean.
The nature of assay [12]: Luminescence Cell-Based Dose Confirmation HTS to Identify Inhibitors of Platelet Dense Granule Release. [Related pubchem assays: 1663 (Primary HTS), 1678 (Summary of Project)]. The format is functional.
The target in assay [13] is Luciferin 4-monooxygenase (Photinus pyralis, UniProt P08659). Put plainly: firefly luciferase enzyme inhibitors, dose response, biochemical, luminescence (AID 1891).
Sequence of Luciferin 4-monooxygenase (P08659 whole entry): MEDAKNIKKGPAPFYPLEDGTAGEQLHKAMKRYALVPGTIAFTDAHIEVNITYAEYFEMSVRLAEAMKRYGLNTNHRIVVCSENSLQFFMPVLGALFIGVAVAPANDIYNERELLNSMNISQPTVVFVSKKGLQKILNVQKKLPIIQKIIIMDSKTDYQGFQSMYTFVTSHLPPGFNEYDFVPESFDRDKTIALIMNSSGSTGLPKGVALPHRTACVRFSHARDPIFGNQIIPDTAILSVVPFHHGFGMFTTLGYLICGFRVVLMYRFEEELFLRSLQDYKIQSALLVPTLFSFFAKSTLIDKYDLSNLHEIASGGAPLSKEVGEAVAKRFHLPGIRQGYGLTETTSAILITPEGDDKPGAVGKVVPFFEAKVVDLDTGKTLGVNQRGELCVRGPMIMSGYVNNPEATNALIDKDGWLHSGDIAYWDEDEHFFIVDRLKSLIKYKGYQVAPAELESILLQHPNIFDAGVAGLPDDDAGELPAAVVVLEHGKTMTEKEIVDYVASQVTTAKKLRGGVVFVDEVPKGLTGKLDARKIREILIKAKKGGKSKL
The target of assay [14] is T4, Protein skinhead-1 (Caenorhabditis elegans, UniProt P34707).
T4 sequence (P34707 whole entry): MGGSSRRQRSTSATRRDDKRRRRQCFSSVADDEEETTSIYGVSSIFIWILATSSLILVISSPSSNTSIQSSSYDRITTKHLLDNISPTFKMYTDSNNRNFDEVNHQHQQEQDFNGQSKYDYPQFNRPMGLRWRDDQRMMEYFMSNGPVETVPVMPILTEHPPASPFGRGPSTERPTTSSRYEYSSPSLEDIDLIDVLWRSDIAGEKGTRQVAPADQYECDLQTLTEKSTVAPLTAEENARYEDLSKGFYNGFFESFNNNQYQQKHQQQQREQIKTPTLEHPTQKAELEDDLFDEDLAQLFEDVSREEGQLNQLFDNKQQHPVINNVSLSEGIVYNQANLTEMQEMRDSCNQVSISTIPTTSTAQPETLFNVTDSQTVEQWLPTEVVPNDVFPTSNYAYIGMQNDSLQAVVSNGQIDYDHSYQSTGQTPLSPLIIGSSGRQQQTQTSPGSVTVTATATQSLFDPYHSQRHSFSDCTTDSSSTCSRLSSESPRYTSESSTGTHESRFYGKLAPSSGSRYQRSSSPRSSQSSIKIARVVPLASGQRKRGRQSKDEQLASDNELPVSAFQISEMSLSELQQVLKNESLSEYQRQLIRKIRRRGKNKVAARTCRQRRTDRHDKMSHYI
The format is functional.

The target in assay [15] is T5, Corticotropin-releasing factor receptor 2/Corticotropin-releasing factor-binding protein (Homo sapiens, UniProt P24387+Q13324).
T5 sequence (Q13324 whole entry): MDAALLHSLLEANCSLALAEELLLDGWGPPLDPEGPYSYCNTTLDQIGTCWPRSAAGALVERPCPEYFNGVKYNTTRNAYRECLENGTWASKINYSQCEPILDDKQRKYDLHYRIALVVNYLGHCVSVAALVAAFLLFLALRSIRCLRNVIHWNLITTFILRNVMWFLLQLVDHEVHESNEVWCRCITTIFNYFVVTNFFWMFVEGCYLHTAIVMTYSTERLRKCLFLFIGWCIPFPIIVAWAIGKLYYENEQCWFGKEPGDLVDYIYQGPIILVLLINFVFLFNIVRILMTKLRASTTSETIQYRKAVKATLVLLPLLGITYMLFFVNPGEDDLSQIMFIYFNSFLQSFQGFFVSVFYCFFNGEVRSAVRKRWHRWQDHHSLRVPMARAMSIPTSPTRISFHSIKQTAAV
T5 sequence (P24387 whole entry): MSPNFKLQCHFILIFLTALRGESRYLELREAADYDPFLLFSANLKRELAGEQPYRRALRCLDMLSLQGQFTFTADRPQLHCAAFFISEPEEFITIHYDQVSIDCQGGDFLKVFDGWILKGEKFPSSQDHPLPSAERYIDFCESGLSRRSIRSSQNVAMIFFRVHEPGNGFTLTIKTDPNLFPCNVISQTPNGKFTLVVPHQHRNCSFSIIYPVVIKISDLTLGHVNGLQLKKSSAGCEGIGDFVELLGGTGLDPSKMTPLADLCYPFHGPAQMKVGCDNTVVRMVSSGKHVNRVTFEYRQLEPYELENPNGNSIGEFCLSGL
Put plainly: activators of CRF receptor 2 with binding protein – uHTS hits, confirmation (AID 602473). Type of assay: functional. As to conditions: read-out: EC50_Mean.

T1 sequence (P49327 whole entry, the tested form may be a part): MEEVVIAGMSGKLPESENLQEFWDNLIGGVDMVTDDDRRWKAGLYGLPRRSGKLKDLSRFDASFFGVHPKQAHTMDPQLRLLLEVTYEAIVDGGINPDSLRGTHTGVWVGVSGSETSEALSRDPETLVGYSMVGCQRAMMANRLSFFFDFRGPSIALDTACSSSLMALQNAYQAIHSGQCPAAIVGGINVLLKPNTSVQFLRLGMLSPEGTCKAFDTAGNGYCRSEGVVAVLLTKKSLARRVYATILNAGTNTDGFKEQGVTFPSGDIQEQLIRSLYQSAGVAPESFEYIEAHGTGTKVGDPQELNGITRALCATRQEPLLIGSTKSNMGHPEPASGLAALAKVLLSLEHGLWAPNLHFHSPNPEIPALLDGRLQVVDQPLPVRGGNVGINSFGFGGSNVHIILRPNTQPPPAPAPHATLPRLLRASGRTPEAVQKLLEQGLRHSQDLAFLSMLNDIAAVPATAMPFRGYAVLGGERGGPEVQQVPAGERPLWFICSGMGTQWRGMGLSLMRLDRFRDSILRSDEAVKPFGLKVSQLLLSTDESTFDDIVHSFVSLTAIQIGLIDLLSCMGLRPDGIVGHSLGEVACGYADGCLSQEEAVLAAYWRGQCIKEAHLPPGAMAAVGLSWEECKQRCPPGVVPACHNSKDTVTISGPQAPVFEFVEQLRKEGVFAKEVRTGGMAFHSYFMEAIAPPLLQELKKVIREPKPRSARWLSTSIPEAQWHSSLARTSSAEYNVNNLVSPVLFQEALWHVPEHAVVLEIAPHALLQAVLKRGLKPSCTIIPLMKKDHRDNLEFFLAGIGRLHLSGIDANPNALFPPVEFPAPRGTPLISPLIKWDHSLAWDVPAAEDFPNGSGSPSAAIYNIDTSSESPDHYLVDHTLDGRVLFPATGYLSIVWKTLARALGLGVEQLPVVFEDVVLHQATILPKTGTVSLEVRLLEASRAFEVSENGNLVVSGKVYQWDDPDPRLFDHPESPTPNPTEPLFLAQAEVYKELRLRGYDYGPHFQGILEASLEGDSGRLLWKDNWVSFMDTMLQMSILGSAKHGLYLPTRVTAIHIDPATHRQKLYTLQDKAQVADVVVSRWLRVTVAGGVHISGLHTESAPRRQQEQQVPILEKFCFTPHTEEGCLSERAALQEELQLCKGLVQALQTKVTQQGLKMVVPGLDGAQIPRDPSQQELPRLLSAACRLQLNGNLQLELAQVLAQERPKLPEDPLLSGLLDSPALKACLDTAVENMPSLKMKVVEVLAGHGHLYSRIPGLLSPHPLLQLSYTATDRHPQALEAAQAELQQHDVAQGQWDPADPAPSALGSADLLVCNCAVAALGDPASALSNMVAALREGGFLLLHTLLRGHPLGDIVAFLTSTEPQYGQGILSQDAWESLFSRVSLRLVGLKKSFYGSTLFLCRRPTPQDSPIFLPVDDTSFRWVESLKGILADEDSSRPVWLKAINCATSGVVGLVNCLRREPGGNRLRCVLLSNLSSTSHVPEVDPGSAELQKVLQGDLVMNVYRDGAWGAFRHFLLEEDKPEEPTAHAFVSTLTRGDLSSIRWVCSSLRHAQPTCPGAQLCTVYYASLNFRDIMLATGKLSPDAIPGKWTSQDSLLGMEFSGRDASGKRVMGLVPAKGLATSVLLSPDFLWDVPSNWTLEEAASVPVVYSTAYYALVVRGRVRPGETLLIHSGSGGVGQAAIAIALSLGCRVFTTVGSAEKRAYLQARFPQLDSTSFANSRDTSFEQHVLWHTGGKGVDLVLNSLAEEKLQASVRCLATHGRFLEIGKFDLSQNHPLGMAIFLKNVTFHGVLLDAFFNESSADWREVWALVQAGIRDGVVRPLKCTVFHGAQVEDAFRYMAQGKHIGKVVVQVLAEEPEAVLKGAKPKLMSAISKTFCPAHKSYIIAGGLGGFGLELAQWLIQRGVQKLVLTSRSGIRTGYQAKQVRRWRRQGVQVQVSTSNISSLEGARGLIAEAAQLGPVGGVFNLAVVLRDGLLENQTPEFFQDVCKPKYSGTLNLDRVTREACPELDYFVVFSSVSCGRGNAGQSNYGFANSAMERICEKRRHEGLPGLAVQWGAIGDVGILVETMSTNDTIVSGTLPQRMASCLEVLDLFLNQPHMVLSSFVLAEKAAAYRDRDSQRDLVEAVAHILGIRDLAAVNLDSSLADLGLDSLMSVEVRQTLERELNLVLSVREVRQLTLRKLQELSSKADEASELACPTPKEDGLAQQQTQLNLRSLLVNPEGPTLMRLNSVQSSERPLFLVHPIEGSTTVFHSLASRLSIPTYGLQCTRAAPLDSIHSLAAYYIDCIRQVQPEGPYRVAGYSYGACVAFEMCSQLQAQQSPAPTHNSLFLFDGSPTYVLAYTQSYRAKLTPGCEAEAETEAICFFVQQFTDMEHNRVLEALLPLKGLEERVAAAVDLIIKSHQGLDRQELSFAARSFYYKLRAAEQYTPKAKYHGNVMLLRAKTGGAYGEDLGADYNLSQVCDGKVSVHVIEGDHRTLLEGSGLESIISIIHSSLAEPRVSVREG

On to `CCC(=O)Oc1cccc(C(=O)Nc2ccc(-c3nnc(-c4ccco4)o3)cc2)c1`, for which the values for the EC50 in [1], in assay [2] and in assay [4] were > 120 µM (not active), 6.33 µM (active) and 3.89 µM (active), respectively. For the same compound, in assay [3], the IC50 was 22.7 µM (active).

For the compound `O=[N+]([O-])c1ccc(NCc2ccc(Cl)cc2)c2ccncc12`, the figures for the IC50 in assay [5] and in assay [9] were 3.17 µM (active) and 3.75 µM (active), respectively. Further, the EC50 in assay [6] is > 150 µM (not active); in assay [7], 15.1 µM (active); in assay [8], 32.3 µM (active).

Consider `COc1cc2ncc(S(=O)(=O)c3ccccc3)c(N3CCC4(CC3)OCCO4)c2cc1OC`, for which the IC50 in assay [5] was 2.55 µM (active); in [9] it was 1.59 µM (active).

With `CC(NC(=O)COC(=O)c1cc([N+](=O)[O-])ccc1N1CCOCC1)c1ccccc1` (configuration not stated), the IC50 in assay [5] was 4.64 µM (active); in assay [9] it was 2.93 µM (active).

With `CN(C)S(=O)(=O)c1cccc(NC(=O)c2cc([N+](=O)[O-])ccc2N2CCCCC2)c1`, the IC50 was 13.1 µM (active) in assay [5] and 12.2 µM (active) in assay [9].

Consider `Cc1cc(C)c(C(=O)CC(=O)c2ccccc2Cl)c(O)c1`, for which the EC50 in assay [6] was 23.5 µM (active); in assay [7], > 150 µM (not active); in assay [8], 7.46 µM (active). Further, the IC50 in assay [3] was 11.7 µM (active).

As to `COc1ccc(N2C(=O)NC3CC2(C)Oc2ccc(Br)cc23)cc1OC` (configuration not stated), the IC50 in assay [5] is 4.93 µM (active); in assay [9], 5.33 µM (active).

`O=C(CN1C(=O)S/C(=C/c2ccncc2)C1=O)N1CCOCC1`: the IC50 in assay [10] and in assay [11] was > 66 µM (inactive) in each case.

`O=C(NCCc1cccc(Cl)c1)c1ccc(Cl)c([N+](=O)[O-])c1`: the IC50 in assay [5] is 9.28 µM (active); in assay [9], 9.95 µM (active).

As for `Cc1onc(-c2c(F)cccc2Cl)c1C(=O)NC(=S)NC1CCS(=O)(=O)C1` (configuration not stated), the IC50 in assay [10] and in assay [11] was > 66 µM (inactive) throughout.

Take `O=C(Nc1ccc(CN2CCOCC2)cc1)c1ccc(-c2cccc([N+](=O)[O-])c2)o1`: the IC50 in assay [3] was > 79 µM (inactive).

Turning to `Cc1sc2nc(COC(=O)Cc3ccccc3)nc(O)c2c1C`, in [3], the IC50 was 23.4 µM (active).

On to `COc1ccc(C2(CNC(=O)c3cccc([N+](=O)[O-])c3)CCCCC2)cc1OC`, for which the IC50 in [5] is 14.9 µM (active); in [9], 10.2 µM (active).

As to `COc1ccc(C(=O)NCc2ccc3c(c2)cc(C)n3C)cc1`, the EC50 in [12] and in [13] was > 112 µM (not active) in each case. Further, the IC50 in [10] is > 66 µM (inactive); in [11], > 66 µM (inactive); in assay [14], > 100 µM (inactive).

On to `COC(=O)CSc1[nH]c2ccccc2c1[N+](=O)[O-]`, for which the IC50 in assay [10] and in assay [11] was > 66 µM (inactive) each time.

Regarding `COc1ccccc1NS(=O)(=O)c1cc(NC(=O)CCc2nc(O)c3ccccc3n2)ccc1C`, the IC50 in assay [3] is > 79 µM (inactive).

On to `COc1nccnc1NS(=O)(=O)c1ccc(NC(=S)NC(=O)/C=C/c2ccccc2)cc1`, for which the IC50 in assay [10] and in assay [11] was > 66 µM (inactive) each time.

On to `COc1ccccc1CN(C(=O)CNC(=O)c1ccco1)C(C(=O)NCC1CCCO1)c1ccccc1` (configuration not stated), for which the IC50 in assay [3] is > 79 µM (inactive).

As for `c1cc2c3c(cccc3c1)NC1(CCCC1)N2`, the IC50 in [10] and in assay [11] was > 66 µM (inactive) each time.

In the case of `CCCCN1CC(COCc2ccccc2)Oc2cccc(OCCN3C(=O)[C@@H]4[C@H](C3=O)C3C=C[C@H]4C3)c2S1(=O)=O` (some centres not stated), the IC50 in assay [3] was > 79 µM (inactive). Moreover, the EC50 in assay [15] was 5.15 µM (active).

Consider `O=C(N/N=C/c1ccccn1)c1cc(-c2ccc(Cl)s2)n[nH]1`, for which, in assay [3], the IC50 was > 79 µM (inactive).

Regarding `CSc1nsc(NN)n1`, the IC50 in assay [10] and in assay [11] was > 66 µM (inactive) throughout.

`COc1cc(C(=O)N/N=C/c2ccc(OC(=O)c3ccccc3Cl)cc2)ccc1O`: the IC50 in [3] was > 79 µM (inactive).

Take `Cc1cc(Cl)ccc1NC(=O)CCC(=O)N/N=C/c1cc([N+](=O)[O-])ccc1O`: the IC50 in [5] was 12.8 µM (active); in [9], 8.57 µM (active).
